The values that follow come from patent publication US12486228B2, “N-substituted indoles and use as allosteric modulators of cannabinoid receptors” (priority 2018, dated 2025).

By EC50 is commonly meant the concentration at which the effect is half-maximal. A word on the Emax: it is the greatest response seen or fitted, relative to the assay's reference.

The target of assay [1] is T1, CB2 (Homo sapiens, UniProt P34972). The assay is described as follows: cell-based. To be noted: for EC50 / Emax: CB2, agonist mode; for EC50: read-out: CB2 Agonist mode cAMP EC50; for Emax: read-out: CB2 Agonist mode cAMP Emax.
Assay [2] has as its target T2, hCB1 (Homo sapiens, UniProt P21554). Nature of the assay: cell-based. More on the design: host or cells: CHO-K1. The method, then:
HitHunter cAMP assay: Inhibition of forskolin-stimulated cAMP was determined using the DiscoveRx HitHunter assay in hCB1R CHO-K1 cells. Cells (20,000 cells/well in low-volume 96 well plates) were incubated overnight in Opti-MEM (Invitrogen) containing 1% FBS at 37° C. and 5% CO2. Following this, Opti-MEM media was removed and replaced with cell assay buffer (DiscoveRx) and cells were co-treated at 37° C. with 10 μM forskolin and hCB1R ligands (0.10 nM-10 μM) for 30 min or 90 min cAMP antibody solution and cAMP working detection solutions were then added to cells according to the manufacturer's directions (DiscoveRx®) and cells were incubated for 60 min at room temperature. cAMP solution A was added according to the manufacturer's directions (DiscoveRx®) and cells were incubated for an additional 60 min at room temperature before chemiluminescence was measured on a Cytation 5 plate reader (top read, gain 200, integration time 10,000 ms).

Assay [3] addresses T1, CB2. The assay is described as follows: cell-based. To be noted: for EC50 / Emax: CB2, agonist mode; for EC50: read-out: CB2 Agonist mode β-Arrestin EC50; for Emax: read-out: CB2 Agonist mode β-Arrestin Emax.
Assay [4] deals with T2, hCB1. The assay is described as follows: cell-based. Also noted: host or cells: CHO-K1 PathHunter. The protocol: PathHunter CB1 β-Arrestin Assay: Chinese hamster ovary K1 (CHO-K1)-PathHunter hCB1 β-arrestin cells (DiscoveRx, Fremont, CA) were seeded at 5000 cells/well in 384-well plates 24 h before use and incubated at 37° C., 5% CO2. Compounds were dissolved in dimethyl sulfoxide (DMSO) and diluted in optimized cell culture (OCC) media. Agonist EC80 was determined directly from an agonist dose—response curve (data not shown). […] Five microliters of allosteric modulator or vehicle solution was added to each well at the appropriate concentrations and incubated for 30 min. Five microliters of agonist was then added to each well followed by a 90 min incubation. Fifteen microliters of detection reagent was then added followed by further 60 min incubation at room temperature. Chemiluminescence was measured on a standard luminescence plate reader as relative light units (RLU). Basal RLU was defined as zero. […] Data were analyzed using the fourparameter variable-slope and allosteric EC50 shift nonlinear regression equations in Prism 5.0 (GraphPad, San Diego, CA).

Assay [5] has as its system normotensive C57Bl/6J mice. To be noted: 0.2% GAT1102 combined with subthreshold 0.25% WIN55,212-2, topical, at 6 and 12 hrs, n=5, P<0.05. The protocol:
(§1) Normotensive C57Bl/6J mice and Sh3pxd2b mice were obtained from Jackson Laboratory (Bar Harbor, Maine). The Sh3pxd2b mice were bred in house, and their progenies with abnormal phenotypical morphology, identified as a nee mice, were used for experiments.
(§2) Drug was administered topically (5 μl/eye) to the right eyes, while the left eyes received vehicle control (2% DMSO+4% Tween-20 in Tocrisolve; 5 μl).
(§3) Mice were anesthetized with the isoflurane (3% induction, 1.5% maintenance). The intraocular pressure (TOP) was measured with a handheld rebound tonometer (Tonolab, Icare, Finland), calibrated to mouse. Ten recordings were taken for each eye and then averaged. The IOP readings were taken at time 0 (baseline), 1, 6 and 12 hrs after the drug/vehicle administration. All the measurements were taken at the same time of the day, in order to minimize variability related to diurnal changes in IOP.
(§4) Data was analyzed by GraphPad version 6.0 (GraphPad Software, Inc., La Jolla, CA). Paired t-tests were used to compare between eyes of the same animal. A P value of <0.05 was considered significant. […] Values are represented as a change in IOP from the baseline (time 0).

The subject of assay [6] is ocular hypertensive nee mice. To be noted: GAT1102 0.2% alone, topical, at 1 and 12 hrs, n=6, P<0.05. The protocol:
as §1, §2, §3, §4

In assay [7] the test system is excitatory postsynaptic currents (EPSCs).
[8] abbreviates: CB1, PAM mode, read-out: CB1 PAM mode cAMP EC50.
Where [9] appears, read: CB1, agonist mode, read-out: CB1 Agonist mode cAMP EC50.
Setting [10] is: read-out: CB1 Agonist mode cAMP Emax, CB1, agonist mode.
Setting [11] is: read-out: CB1 PAM mode cAMP Emax, CB1, PAM mode.
The mark [12] stands for this setting: CB1, PAM mode, read-out: CB1 PAM mode β-Arrestin EC50.
The mark [13] stands for this setting: CB1, agonist mode, read-out: CB1 Agonist mode β-Arrestin EC50.
Setting [14] is: read-out: CB1 Agonist mode β-Arrestin Emax.
The mark [15] stands for this setting: read-out: CB1 PAM mode β-Arrestin Emax.

Where two headings read alike, the source gives them in different places.

T1 sequence (P34972 whole entry, species assumed): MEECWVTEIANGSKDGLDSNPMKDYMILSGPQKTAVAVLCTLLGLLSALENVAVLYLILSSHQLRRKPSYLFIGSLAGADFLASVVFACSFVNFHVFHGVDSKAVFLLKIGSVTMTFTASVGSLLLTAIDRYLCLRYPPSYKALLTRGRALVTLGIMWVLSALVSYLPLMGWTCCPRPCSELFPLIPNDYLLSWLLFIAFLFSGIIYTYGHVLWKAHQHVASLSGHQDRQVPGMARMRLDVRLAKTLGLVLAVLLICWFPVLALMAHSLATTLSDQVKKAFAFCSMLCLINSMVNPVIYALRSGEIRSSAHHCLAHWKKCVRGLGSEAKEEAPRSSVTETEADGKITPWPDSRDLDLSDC
T2 sequence (P21554 whole entry): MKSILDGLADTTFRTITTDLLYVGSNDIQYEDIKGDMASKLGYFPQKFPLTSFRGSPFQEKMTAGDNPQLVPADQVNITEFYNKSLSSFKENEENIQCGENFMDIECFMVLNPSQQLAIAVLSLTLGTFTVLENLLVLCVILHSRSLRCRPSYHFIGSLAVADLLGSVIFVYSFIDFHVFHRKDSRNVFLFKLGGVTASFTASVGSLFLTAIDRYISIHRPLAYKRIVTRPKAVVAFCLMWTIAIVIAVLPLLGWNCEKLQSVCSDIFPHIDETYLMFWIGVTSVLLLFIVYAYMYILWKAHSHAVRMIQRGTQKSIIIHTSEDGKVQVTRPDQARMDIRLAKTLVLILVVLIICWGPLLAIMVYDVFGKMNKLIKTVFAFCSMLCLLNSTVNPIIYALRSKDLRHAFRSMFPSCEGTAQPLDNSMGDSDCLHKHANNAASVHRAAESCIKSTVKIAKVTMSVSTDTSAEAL

For `O=C(O)CCCC(c1ccccc1)c1cn(-c2ccccc2)c2ccccc12` (centres unmarked) [Compound 19, 5-Phenyl-5-(1-phenyl-1H-indol-3-yl)pentanoic acid], the EC50 was 0.654 µM in assay [1]; 1.42 µM in assay [2] (setting [8]); 0.827 µM in assay [2] (setting [9]); above 10 µM in assay [3]; above 10 µM in assay [4] (setting [12]); above 10 µM in assay [4] (setting [13]). In addition, the Emax in assay [1] was 95%; in assay [2] (setting [10]), 98%; in assay [2] (setting [11]), 98%; in assay [3], 0%; in assay [4] (setting [14]) it was 0%; in assay [4] (setting [15]), 0%.
On to `O=C(O)CCCCC(c1ccccc1)c1cn(-c2ccccc2)c2ccccc12` (centres unmarked) [Compound 20, 6-Phenyl-6-(1-phenyl-1H-indol-3-yl)hexanoic acid], for which the EC50 was 0.505 µM in assay [1]; 1.09 µM in assay [2] (setting [8]); 0.355 µM in assay [2] (setting [9]); above 10 µM in assay [3]; above 10 µM in assay [4] (setting [12]); above 10 µM in assay [4] (setting [13]). For the same molecule, the Emax in assay [1] is 98%; in assay [2] (setting [10]), 96%; in assay [2] (setting [11]) it was 96%; in assay [3] it was 0%; in assay [4] (setting [14]), 0%; in assay [4] (setting [15]), 0%.
Take `O=C(O)CCC(c1ccccc1)c1cn(-c2ccccn2)c2ccccc12` (centres unmarked) [Compound 21, 4-Phenyl-4-(1-(pyridin-2-yl)-1H-indol-3-yl)butanoic acid]: the EC50 in assay [1] was 1.11 µM; in assay [2] (setting [8]), 0.869 µM; in assay [2] (setting [9]) it was 0.457 µM; in assay [3], above 10 µM; in assay [4] (setting [12]), above 10 µM; in assay [4] (setting [13]), above 10 µM. For the same molecule, the Emax in assay [1] came to 85%; in assay [2] (setting [10]), 95%; in assay [2] (setting [11]), 96%; in assay [3], 0%; in assay [4] (setting [14]), 0%; in assay [4] (setting [15]), 0%.
Turning to `O=C(O)CCC(c1ccccc1)c1cn(-c2cccnc2)c2ccccc12` (centres unmarked) [Compound 22, 4-Phenyl-4-(1-(pyridin-3-yl)-1H-indol-3-yl)butanoic acid], the EC50 in assay [1] was 0.731 µM; in assay [2] (setting [8]), 1 µM; in assay [2] (setting [9]) it was 0.831 µM; in assay [3] it was above 10 µM; in assay [4] (setting [12]) it was above 10 µM; in assay [4] (setting [13]), above 10 µM. In addition, the Emax in assay [1] came to 68%; in assay [2] (setting [10]) it was 87%; in assay [2] (setting [11]) it was 109%; in assay [3] it was 0%; in assay [4] (setting [14]) it was 0%; in assay [4] (setting [15]) it was 0%.
As for `O=C(O)CCC(c1ccccc1)c1cn(-c2ccncc2)c2ccccc12` (centres unmarked) [Compound 23, 4-Phenyl-4-(1-(pyridin-4-yl)-1H-indol-3-yl)butanoic acid], the EC50 in assay [1] is 0.57 µM; in assay [2] (setting [8]), 1.06 µM; in assay [2] (setting [9]), 0.357 µM; in assay [3], above 10 µM; in assay [4] (setting [12]) it was above 10 µM; in assay [4] (setting [13]), above 10 µM. The Emax in assay [1] was found to be 78%; in assay [2] (setting [10]), 83%; in assay [2] (setting [11]), 104%; in assay [3] it was 0%; in assay [4] (setting [14]), 0%; in assay [4] (setting [15]), 0%.
Consider `O=C(O)CCC(c1ccccc1)c1c[nH]c2ccccc12` (centres unmarked) [Compound 28, 4-(1H-Pndol-3-yl)-4-phenylbutanoic acid], for which the EC50 was above 10 µM in assay [1]; 4.35 µM in assay [2] (setting [8]); 9.81 µM in assay [2] (setting [9]); above 10 µM in assay [3]; above 10 µM in assay [4] (setting [12]); above 10 µM in assay [4] (setting [13]). Also, the Emax in assay [1] was found to be 29%; in assay [2] (setting [10]), 60%; in assay [2] (setting [11]) it was 71%; in assay [3] it was 0%; in assay [4] (setting [14]), 0%; in assay [4] (setting [15]), 0%.
In the case of `O=C(O)CCC(c1ccccc1)c1cn(C(=O)c2ccccc2)c2ccccc12` (centres unmarked) [Compound 29, 4-(1-Penzoyl-1H-indol-3-yl)-4-phenylbutanoic acid], the EC50 in assay [1] is 0.419 µM; in assay [2] (setting [8]) it was 0.709 µM; in assay [2] (setting [9]) it was 0.596 µM; in assay [3] it was above 10 µM; in assay [4] (setting [12]) it was above 10 µM; in assay [4] (setting [13]), above 10 µM. In addition, the Emax in assay [1] worked out at 76%; in assay [2] (setting [10]), 92%; in assay [2] (setting [11]) it was 114%; in assay [3], 0%; in assay [4] (setting [14]), 0%; in assay [4] (setting [15]), 0%.
As for `CC(=O)CC(C)C(c1ccccc1)c1cn(-c2ccccc2)c2ccccc12` (centres unmarked) [Compound 41, 4-Methyl-5-phenyl-5-(1-phenyl-1H-indol-3-yl)pentan-2-one], in assay [1], the “CB2 Agonist mode cAMP Emax” value is “(34) %”. The EC50 in assay [1], in assay [2] (setting [8]), in assay [2] (setting [9]), in assay [3], in assay [4] (setting [12]) and in assay [4] (setting [13]) was above 10 µM in each case. The Emax in assay [2] (setting [10]), in assay [2] (setting [11]), in assay [3], in assay [4] (setting [14]) and in assay [4] (setting [15]) was 0% throughout.
For `CC(=O)CC(C)C(c1ccccc1)c1cn(-c2ccccc2)c2ccccc12` (centres unmarked) [Compound 42, 4-Methyl-5-phenyl-5-(1-phenyl-1H-indol-3-yl)pentan-2-one], the “CB2 Agonist mode cAMP Emax” value in assay [1] is “(0) %”. Also, the “CB1 PAM mode cAMP Emax” value in assay [2] (CB1, PAM mode) is on record as “(0) %”. Also, in assay [2] (setting [8]), the EC50 was above 10 µM. The “CB1 Agonist mode cAMP Emax” value in assay [2] (CB1, agonist mode) is “(0) %”. In addition, in assay [3], the “CB2 Agonist mode β-Arrestin Emax” value worked out at 0% and the EC50 is above 10 µM. In addition, in assay [4] (CB1, PAM mode), the “CB1 PAM mode β-Arrestin Emax” value was “(0) %”. Also, the “CB1 Agonist mode β-Arrestin Emax” value in assay [4] (CB1, agonist mode) was “(0) %”.
On to `O=[N+]([O-])CC(c1ccccc1)c1c(-c2ccccc2)[nH]c2ccccc12` (centres unmarked) [GAT211, reference compound], for which, in assay [1], the “CB2 Agonist mode cAMP Emax” value is on record as “(0) %” and the EC50 is above 10 µM. The “CB1 PAM mode cAMP Emax” value in assay [2] (CB1, PAM mode) is “(73) %”. Moreover, in assay [2] (CB1, agonist mode), the “CB1 Agonist mode cAMP Emax” value is recorded as “(94) %”. For the same molecule, in assay [3], the “CB2 Agonist mode β-Arrestin Emax” value is reported as 0% and the EC50 was above 10 µM. Also, the “CB1 PAM mode β-Arrestin Emax” value in assay [4] (CB1, PAM mode) is recorded as “(59) %”. In assay [4] (CB1, agonist mode), the “CB1 Agonist mode β-Arrestin Emax” value is “(14) %”.
In the case of `O=C(O)CCC(c1ccccc1)c1cn(-c2ccccc2)c2ccccc12` (centres unmarked) [GAT1102, 4-Phenyl-4-(1-phenyl-1H-indol-3-yl)butanoic acid], the “IOP compared to vehicle” value in assay [5] was “significantly lower”. Besides, in assay [6], the IOP change result is “significantly decreased IOP”. Further, the “agonist properties (direct inhibition of EPSCs)” value in assay [7] (1 μM GAT1102) is on record as “exhibited agonist properties in some cells”. Also, in assay [7] (slowing recovery for DSE, in most cases occluded by direct inhibition), the “PAM effect on depolarization-induced suppression of excitation (DSE)” value is given as “some evidence of a modest GAT1102 PAM effect”.
